The target of the test is Androgen receptor (Mus musculus) (UniProt P19091). The experiment in a line: Antagonist activity at androgen receptor in mouse SC-3 cells assessed as inhibition of DHT-induced cell growth at 1 uM co-treated with DHT measured after 3 days by CCK8 assay.
Chain of Androgen receptor (Mus musculus) (P19091 whole entry, looked up): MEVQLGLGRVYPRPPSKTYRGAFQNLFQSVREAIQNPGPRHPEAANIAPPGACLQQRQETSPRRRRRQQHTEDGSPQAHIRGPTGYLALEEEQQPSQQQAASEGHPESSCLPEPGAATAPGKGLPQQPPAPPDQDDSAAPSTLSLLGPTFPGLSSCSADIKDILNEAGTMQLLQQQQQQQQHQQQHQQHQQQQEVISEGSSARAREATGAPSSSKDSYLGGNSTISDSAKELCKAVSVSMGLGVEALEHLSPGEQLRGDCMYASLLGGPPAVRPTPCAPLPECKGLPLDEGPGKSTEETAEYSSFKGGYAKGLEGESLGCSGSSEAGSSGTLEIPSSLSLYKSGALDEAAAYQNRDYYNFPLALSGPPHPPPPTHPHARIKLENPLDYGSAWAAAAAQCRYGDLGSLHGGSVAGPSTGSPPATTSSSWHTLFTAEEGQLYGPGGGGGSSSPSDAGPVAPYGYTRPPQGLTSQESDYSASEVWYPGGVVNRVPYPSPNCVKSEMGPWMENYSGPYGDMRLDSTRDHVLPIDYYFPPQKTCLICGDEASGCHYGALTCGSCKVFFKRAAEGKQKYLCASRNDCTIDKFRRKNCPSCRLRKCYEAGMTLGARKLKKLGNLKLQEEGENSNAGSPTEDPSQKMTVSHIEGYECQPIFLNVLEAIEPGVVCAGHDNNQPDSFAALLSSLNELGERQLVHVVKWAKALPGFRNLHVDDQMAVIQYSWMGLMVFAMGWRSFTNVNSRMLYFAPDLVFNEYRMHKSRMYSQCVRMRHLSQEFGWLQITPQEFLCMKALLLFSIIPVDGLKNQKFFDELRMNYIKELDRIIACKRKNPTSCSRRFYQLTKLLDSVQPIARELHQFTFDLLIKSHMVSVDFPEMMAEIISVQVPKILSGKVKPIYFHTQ

As to `O=S(=O)(Nc1ccc(Oc2ccccc2)cc1)c1cccc(Cl)c1`, the inhibition (commonly the drop in the measured response relative to a control, in per cent) turned out to be 8.4%.

The values are drawn from ChEMBL document CHEMBL3865849, “Development of N-(4-Phenoxyphenyl)benzenesulfonamide Derivatives as Novel Nonsteroidal Progesterone Receptor Antagonists” (ACS Med Chem Lett, 2016).
